# According to patent US20170325451A1, “Use of Alkyl Gallate for Stimulating the Natural Defenses of Plants” (priority 2014, published 2017):
# Assays:
# tobacco leaf = experiment: Infiltration of tobacco leaf: chlorosis and synthesis of autofluorescent compounds; type: in vivo; conditions: 4 days after infiltration; for production of autofluorescent compounds around the infiltration sites: solutions 5 mmol·L^−1, infiltrated
# Protocol: The plants are 8 weeks old, in the 12-15 leaf stage, cultured in a greenhouse or growing chamber.
# 50 μL of different EG solutions having molar concentrations (0.5 mmol·L^−1 to 5 mmol·L^−1) and of MG and PG solutions having a molar concentration of 5 mmol·L^−1 are infiltrated on the upper side of the tobacco leaf. The negative control is water; the positive control is salicylic acid (SA) at a molar concentration of […].
# The different plants are photographed 4 days after the infiltration.
# The negative control is water.
# [1] = test system: transcripts coding for pathogenesis-related proteins (PR1, PR2, PR3, PR5) in tobacco leaves; experiment: Accumulation of PR transcripts in treated tobacco leaves (quantitative real-time PCR); type: in vivo
# Protocol: The markers for the acquired local response (ALR) are tested for in the tobacco leaves that have been treated by the infiltration method (20 infiltration points per leaf/50 μL per infiltration) or by spraying (sufficient quantity to cover the leaf and obtain saturation, or approximately 2 mL per leaf) at a rate of 3 leaves per plant (non-senescent basal leaves). The leaves treated are separated from the plant 4 days after treatment and frozen immediately in liquid nitrogen for grinding and extraction of the total RNA. The RNA is extracted in the presence of CTAB buffer according to the protocol described by Chang et al. (1993) [Chang S, Puryear J, Cairney J (1993) A simple and efficient method for isolation RNA from pine trees. Plant mol Biol rep 11: 113-116]. The total RNA is purified and treated by DNase I (1 U) and RNase inhibitor (40 U) (Euromedex), in order to eliminate any possible contamination of the genomic DNA. The total RNA assay is run on the spectrophotometer (NanoDrop-1000). The integrity of the RNA is checked by agarose gel electrophoresis (1%) by detection of the ribosomal RNA subunits. The complementary DNA is synthesized from 1 μg of total RNA using Euroscript Reverse Transcriptase (Eurogentec). The PCR reactions are carried out with the Mastermix for SYBR GREEN kit (Eurogentec) using the iCycler iQ5 software (Bio-Rad). The specificity of the amplification is verified by melting curve analysis. The gene coding for EF-1α is used as an internal control. The quantification of the transcripts is calculated according to the mathematical model developed by Pfaffl (2001). [Pfaffl (2001) A new mathematical model for relative quantification in real time RT-PCR. Nucl. Acids res 29: 2002-7]. […]
# 4 days after the infiltration, the transcripts coding for pathogenesis-related proteins (PR proteins) are measured by quantitative real-time PCR. The total RNA is extracted from the infiltrated tobacco leaves. The cDNA is synthesized, and the transcripts of interest are quantified using specific primers of the genes PR1, PR2 and PR3.
# tobacco BY-2 cells = experiment: Alkalinization of the extracellular medium of tobacco BY-2 cell cultures; type: cell-based; conditions: for alkalinization of the extracellular medium: molar concentrations from 2 to 5 mmol·L^−1, BY-2 cultures
# Protocol: The cell cultures are tobacco BY-2 cells maintained in cultures at 24° C., under stirring in darkness.
# EG solutions (molar concentrations from 0.5 mmol·L^−1 to 5 mmol·L^−1), MG (1 mmol·L^−1 and 5 mmol·L^−1), or PG solutions (1 mmol·L^−1 and 5 mmol·L^−1) are added to tobacco BY-2 cell cultures at time T0. The pH is measured continuously (every 10 min) in the extracellular medium for 150 minutes.
# The cell cultures are tobacco BY-2 cells maintained in cultures at 24° C., under stirring and in darkness.
# Two GA solutions (0.5 mmol·L^−1 and 5 mmol·L^−1) are added to tobacco BY-2 cell cultures at time T0. The pH is measured continuously (every 10 min) in the extracellular medium for 150 minutes. EG solutions at different molar concentrations (0.5 mmol·L^−1 and 5 mmol·L^−1) are used as controls.
# [2] = 5 mmol·L^−1, infiltration, 4 days after treatment
# [3] = 5 mmol·L^−1, spraying, 4 days after treatment
# [4] = 50 mmol·L^−1, infiltration, 4 days after treatment
# [5] = GA solutions 58.8 and 5.88 mmol·L^−1, infiltrated
smiles,measurement,setting,value
"CCOC(=O)c1cc(O)c(O)c(O)c1 [EG, ethyl gallate]",chlorosis,"tobacco leaf; EG solutions 0.5 to 5 mmol·L^−1, 50 μL infiltrated on tobacco leaf, natural light",do not induce chlorosis
same,production of autofluorescent compounds of the phytoalexin type around the infiltration sites,"tobacco leaf; EG solutions 0.5 to 5 mmol·L^−1, infiltrated, UV 312 nm",extensive production of autofluorescent compounds
same,Relative quantities of transcripts PR1,[1]; [2],6.7 ± 1.2
same,Relative quantities of transcripts PR2,[1]; [2],6.2 ± 1.7
same,Relative quantities of transcripts PR3,[1]; [2],5.6 ± 1.3
same,Relative quantities of transcripts PR1,[1]; [3],15 ± 0.4
same,Relative quantities of transcripts PR2,[1]; [3],32 ± 4.6
same,Relative quantities of transcripts PR3,[1]; [3],23 ± 7.1
same,Relative quantities of transcripts PR5,[1]; [3],14 ± 2.2
same,Relative quantities of transcripts PR1,[1]; [4],3.7 ± 1.3
same,Relative quantities of transcripts PR2,[1]; [4],23.4 ± 3.3
same,Relative quantities of transcripts PR3,[1]; [4],30.4 ± 5.3
same,"accumulation of transcripts that are markers of the defense reactions: PR1, PR2, PR3, PR5","[1]; EG solutions 5 and 50 mmol·L^−1, infiltration or spraying",induce the accumulation of transcripts
same,alkalinization of the extracellular medium,tobacco BY-2 cells,induce a rapid alkalinization
"CCCOC(=O)c1cc(O)c(O)c(O)c1 [PG, propyl gallate]",production of autofluorescent compounds around the infiltration sites,tobacco leaf; UV 312 nm,induce the same phenomenon of production of autofluorescent compounds
same,alkalinization of the extracellular medium,tobacco BY-2 cells,induce a rapid alkalinization
"O=C(O)c1cc(O)c(O)c(O)c1 [GA, gallic acid, reference compound]",autofluorescent zones around the infiltration zones,tobacco leaf; [5],not accompanied by autofluorescent zones
same,chlorosis,tobacco leaf; [5],induce strong chlorosis
same,"accumulation of transcripts (PR1, PR2, PR3) compared to water","[1]; GA solution 5.88 mmol·L^−1, infiltration, 4 days after infiltration",does not induce a significant accumulation of transcripts
same,effect on the pH of the culture medium,"tobacco BY-2 cells; GA solutions 0.5 and 5 mmol·L^−1, 150 minutes",no effect on the pH
"COC(=O)c1cc(O)c(O)c(O)c1 [MG, methyl gallate]",production of autofluorescent compounds around the infiltration sites,tobacco leaf; UV 312 nm,induce the same phenomenon of production of autofluorescent compounds
same,alkalinization of the extracellular medium,tobacco BY-2 cells,induce a rapid alkalinization
